# Test results published in US20120316184A1, “NOVEL MICROBICIDES” (SYNGENTA CROP PROTECTION LLC, priority 2010, published 2012).
# Test system: Mycosphaerella arachidis (Cercospora arachidicola)
# Assay: Fungicidal activity against Mycosphaerella arachidis (Cercospora arachidicola) / liquid culture (early leaf spot)
# Type: cell-based
# Conditions: liquid culture (PDB), inhibition of growth determined photometrically 4-5 days after application, read-out: disease control
# Method: (§1) Fungicidal Activity Against Mycosphaerella arachidis (Cercospora arachidicola)/Liquid Culture (Early Leaf Spot) Conidia of the fungus from cryogenic storage were directly mixed into nutrient broth (PDB potato dextrose broth). After placing a (DMSO) solution of test compound into a microtiter plate (96-well format), the nutrient broth containing the fungal spores was added. The test plates were incubated at 24° C. and the inhibition of growth was determined photometrically 4-5 days after application.
row,SMILES,inhibition of growth at 200 ppm
1,Cc1cccc(-c2nc(-c3ccccc3)c3ncccc3n2)n1 [Compound T15.10],≥ 80%
2,c1ccc(Cc2cccc(-c3ncc4c5c(sc4n3)CCC5)n2)cc1 [Compound T15.2],≥ 80%
3,Cc1cccc(-c2nc(-c3cccc(C)n3)nc3sccc23)c1 [Compound T15.12],≥ 80%
4,"COc1nc(-c2cccc(Cc3ccccc3)n2)nc2sccc12 [Compound T3.1.35, 2-(6-benzyl-pyridin-2-yl)-4-methoxy-thieno[2,3-d]pyrimidine]",≥ 80%
5,Cc1sc2nc(-c3cccc(Cc4ccccc4)n3)ncc2c1C [Compound T15.4],≥ 80%
6,COc1nc(-c2cccc(-c3cc(C)ccc3C)n2)nc2sccc12 [Compound T15.8],≥ 80%
7,Cc1cccc(-c2nc(-c3ccc(Cl)cc3)c3ccsc3n2)n1 [Compound T15.15],≥ 80%
8,COc1cccc(-c2nc(-c3cccc(C)n3)nc3sccc23)c1 [Compound T15.11],≥ 80%
9,c1ccc(Cc2cccc(-c3ncc4ccsc4n3)n2)cc1 [Compound T15.16],≥ 80%

# Test system: Pyrenophora teres
# Assay: Fungicidal activity against Pyrenophora teres / barley / leaf disc preventative (net blotch)
# Type: in vivo
# Conditions: foliar, barley leaf segments cv. Hasso, inoculated 2 days after application, assessed 5-7 days after application, vs untreated, read-out: disease control
# Method: Fungicidal Activity Against Pyrenophora teres/Barley/Leaf Disc Preventative (Net Blotch) Barley leaf segments cv. Hasso were placed on agar in a multiwell plate (24-well format) and sprayed with the formulated test compound diluted in water. The leaf […] inoculated with a spore suspension of the fungus 2 days after application. The inoculated leaf segments were incubated at 20° C. and 65% rh under a light regime of 12 h light/12 h darkness in a climate cabinet and the activity of a compound was assessed as disease control compared to untreated when an appropriate level of disease damage appears in untreated check leaf segments (5-7 days after application).
row,SMILES,pest or weed control at 200 ppm
1,Cc1cccc(-c2nc(-c3ccccc3)c3ncccc3n2)n1 [Compound T15.10],≥ 80%
2,Cc1cccc(-c2nc(-c3cccc(C)n3)nc3sccc23)c1 [Compound T15.12],≥ 80%
3,Cc1sc2nc(-c3cccc(Cc4ccccc4)n3)ncc2c1C [Compound T15.4],≥ 80%
4,COc1nc(-c2cccc(-c3cc(C)ccc3C)n2)nc2sccc12 [Compound T15.8],≥ 80%
5,Cc1cccc(-c2nc(-c3ccc(Cl)cc3)c3ccsc3n2)n1 [Compound T15.15],≥ 80%
6,COc1cccc(-c2nc(-c3cccc(C)n3)nc3sccc23)c1 [Compound T15.11],≥ 80%
7,c1ccc(Cc2cccc(-c3ncc4ccsc4n3)n2)cc1 [Compound T15.16],≥ 80%

# Test system: Phaeosphaeria nodorum (Septoria nodorum)
# Assay: Fungicidal activity against Phaeosphaeria nodorum (Septoria nodorum) / wheat / leaf disc preventative (glume blotch)
# Type: in vivo
# Conditions: Parastagonospora nodorum, foliar, wheat leaf segments cv. Kanzler, inoculated 2 days after application, assessed 5-7 days after application, vs untreated, read-out: disease control
# Method: Fungicidal Activity Against Phaeosphaeria nodorum (Septoria nodorum)/Wheat/Leaf Disc Preventative (Glume Blotch) Wheat leaf segments cv. Kanzler were placed on agar in a multiwell plate (24-well format) and sprayed with the formulated test compound diluted in water. The leaf disks were inoculated with a spore suspension of the fungus 2 days after application. The inoculated test leaf disks were incubated at 20° C. and 75% rh under a light regime of 12 h light/12 h darkness in a climate cabinet and the activity of a compound was assessed as percent disease control compared to untreated when an appropriate level of disease damage appears in untreated check leaf disks (5-7 days after application).
row,SMILES,pest or weed control at 200 ppm
1,Cc1cccc(-c2nc(-c3ccccc3)c3ncccc3n2)n1 [Compound T15.10],≥ 80%
2,Cc1cccc(-c2nc(-c3cccc(C)n3)nc3sccc23)c1 [Compound T15.12],≥ 80%
3,"COc1nc(-c2cccc(Cc3ccccc3)n2)nc2sccc12 [Compound T3.1.35, 2-(6-benzyl-pyridin-2-yl)-4-methoxy-thieno[2,3-d]pyrimidine]",≥ 80%
4,Cc1cccc(-c2nc(-c3ccc(Cl)cc3)c3ccsc3n2)n1 [Compound T15.15],≥ 80%
5,COc1cccc(-c2nc(-c3cccc(C)n3)nc3sccc23)c1 [Compound T15.11],≥ 80%
6,c1ccc(Cc2cccc(-c3ncc4ccsc4n3)n2)cc1 [Compound T15.16],≥ 80%

# Test system: Mycosphaerella graminicola (Septoria tritici)
# Assay: Fungicidal activity against Mycosphaerella graminicola (Septoria tritici) / liquid culture (Septoria blotch)
# Type: cell-based
# Conditions: Zymoseptoria tritici, liquid culture (PDB), inhibition of growth determined photometrically 4-5 days after application, read-out: disease control
# Method: as §1, with “graminicola (Septoria tritici)/Liquid” for “arachidis (Cercospora arachidicola)/Liquid”, “(Septoria Blotch)” for “(Early Leaf Spot)”
row,SMILES,inhibition of growth at 200 ppm
1,Cc1cccc(-c2nc(-c3ccccc3)c3ncccc3n2)n1 [Compound T15.10],≥ 80%
2,Cc1cccc(-c2nc(-c3cccc(C)n3)nc3sccc23)c1 [Compound T15.12],≥ 80%
3,"COc1nc(-c2cccc(Cc3ccccc3)n2)nc2sccc12 [Compound T3.1.35, 2-(6-benzyl-pyridin-2-yl)-4-methoxy-thieno[2,3-d]pyrimidine]",≥ 80%
4,COc1nc(-c2cccc(-c3cc(C)ccc3C)n2)nc2sccc12 [Compound T15.8],≥ 80%
5,Cc1cccc(-c2nc(-c3ccc(Cl)cc3)c3ccsc3n2)n1 [Compound T15.15],≥ 80%
6,COc1cccc(-c2nc(-c3cccc(C)n3)nc3sccc23)c1 [Compound T15.11],≥ 80%
7,c1ccc(Cc2cccc(-c3ncc4ccsc4n3)n2)cc1 [Compound T15.16],≥ 80%

# Test system: Puccinia recondita f. sp. tritici
# Assay: Fungicidal activity against Puccinia recondita f. sp. tritici / wheat / leaf disc preventative (brown rust)
# Type: in vivo
# Conditions: foliar, wheat leaf segments cv. Kanzler, inoculated 1 day after application, assessed 7-9 days after application, vs untreated, read-out: disease control
# Method: Fungicidal Activity Against Puccinia recondita f. sp. tritici/Wheat/Leaf Disc Preventative (Brown Rust) Wheat leaf segments cv. Kanzler were placed on agar in multiwell plates (24-well format) and sprayed with the formulated test compound diluted in water. The leaf disks were inoculated with a spore suspension of the fungus 1 day after application. The inoculated leaf segments were incubated at 19° C. and 75% rh under a light regime of 12 h light/12 h darkness in a climate cabinet and the activity of a compound was assessed as percent disease control compared to untreated when an appropriate level of disease damage appears in untreated check leaf segments (7-9 days after application).
row,SMILES,pest or weed control at 200 ppm
1,Cc1cccc(-c2nc(-c3ccccc3)c3ncccc3n2)n1 [Compound T15.10],≥ 80%
2,Cc1cccc(-c2nc(-c3cccc(C)n3)nc3sccc23)c1 [Compound T15.12],≥ 80%
3,Cc1cccc(-c2nc(-c3ccc(Cl)cc3)c3ccsc3n2)n1 [Compound T15.15],≥ 80%
4,COc1cccc(-c2nc(-c3cccc(C)n3)nc3sccc23)c1 [Compound T15.11],≥ 80%
5,c1ccc(Cc2cccc(-c3ncc4ccsc4n3)n2)cc1 [Compound T15.16],≥ 80%

# Test system: Glomerella lagenarium (Colletotrichum lagenarium)
# Assay: Fungicidal activity against Glomerella lagenarium (Colletotrichum lagenarium) / liquid culture (anthracnose)
# Type: cell-based
# Conditions: Colletotrichum orbiculare, liquid culture (PDB), inhibition of growth measured photometrically 3-4 days after application, read-out: disease control
# Method: as §1, with “Glomerella lagenarium (Colletotrichum lagenarium)/Liquid” for “Mycosphaerella arachidis (Cercospora arachidicola)/Liquid”, “(Anthracnose)” for “(Early Leaf Spot)”, “measured” for “determined”, “3-4” for “4-5”
row,SMILES,inhibition of growth at 200 ppm
1,Cc1cccc(-c2nc(-c3ccccc3)c3ncccc3n2)n1 [Compound T15.10],≥ 80%
2,Cc1cccc(-c2nc(-c3cccc(C)n3)nc3sccc23)c1 [Compound T15.12],≥ 80%
3,"COc1nc(-c2cccc(Cc3ccccc3)n2)nc2sccc12 [Compound T3.1.35, 2-(6-benzyl-pyridin-2-yl)-4-methoxy-thieno[2,3-d]pyrimidine]",≥ 80%
4,Cc1cccc(-c2nc(-c3ccc(Cl)cc3)c3ccsc3n2)n1 [Compound T15.15],≥ 80%
5,COc1cccc(-c2nc(-c3cccc(C)n3)nc3sccc23)c1 [Compound T15.11],≥ 80%
6,c1ccc(Cc2cccc(-c3ncc4ccsc4n3)n2)cc1 [Compound T15.16],≥ 80%

# Test system: Botryotinia fuckeliana (Botrytis cinerea)
# Assay: Fungicidal activity against Botryotinia fuckeliana (Botrytis cinerea) / liquid culture (gray mould)
# Type: cell-based
# Conditions: liquid culture (Vogels broth), inhibition of growth determined photometrically 3-4 days after application, read-out: disease control
# Method: as §1, with “Botryotinia fuckeliana (Botrytis cinerea)/Liquid” for “Mycosphaerella arachidis (Cercospora arachidicola)/Liquid”, “(Gray Mould)” for “(Early Leaf Spot)”, “(Vogels” for “(PDB potato dextrose”, “3-4” for “4-5”
row,SMILES,inhibition of growth at 200 ppm
1,Cc1cccc(-c2nc(-c3ccccc3)c3ncccc3n2)n1 [Compound T15.10],≥ 80%
2,Cc1cccc(-c2nc(-c3cccc(C)n3)nc3sccc23)c1 [Compound T15.12],≥ 80%
3,Cc1sc2nc(-c3cccc(Cc4ccccc4)n3)ncc2c1C [Compound T15.4],≥ 80%
4,Cc1cccc(-c2nc(-c3ccc(Cl)cc3)c3ccsc3n2)n1 [Compound T15.15],≥ 80%
5,COc1cccc(-c2nc(-c3cccc(C)n3)nc3sccc23)c1 [Compound T15.11],≥ 80%
6,c1ccc(Cc2cccc(-c3ncc4ccsc4n3)n2)cc1 [Compound T15.16],≥ 80%

# Test system: Gaeumannomyces graminis
# Assay: Fungicidal activity against Gaeumannomyces graminis / liquid culture (take-all of cereals)
# Type: cell-based
# Conditions: liquid culture (PDB), inhibition of growth determined photometrically 4-5 days after application, read-out: disease control
# Method: as §1, with “Against Gaeumannomyces graminis/Liquid” for “Against Mycosphaerella arachidis (Cercospora arachidicola)/Liquid”, “Culture (Take-all of Cereals) Mycelial fragments” for “Culture (Early Leaf Spot) Conidia”, “spores is” for “spores was”
row,SMILES,inhibition of growth at 200 ppm
1,Cc1cccc(-c2nc(-c3ccccc3)c3ncccc3n2)n1 [Compound T15.10],≥ 80%
2,c1ccc(Cc2cccc(-c3ncc4c5c(sc4n3)CCC5)n2)cc1 [Compound T15.2],≥ 80%
3,Cc1cccc(-c2nc(-c3cccc(C)n3)nc3sccc23)c1 [Compound T15.12],≥ 80%
4,"COc1nc(-c2cccc(Cc3ccccc3)n2)nc2sccc12 [Compound T3.1.35, 2-(6-benzyl-pyridin-2-yl)-4-methoxy-thieno[2,3-d]pyrimidine]",≥ 80%
5,Cc1sc2nc(-c3cccc(Cc4ccccc4)n3)ncc2c1C [Compound T15.4],≥ 80%
6,COc1nc(-c2cccc(-c3cc(C)ccc3C)n2)nc2sccc12 [Compound T15.8],≥ 80%
7,Cc1cccc(-c2nc(-c3ccc(Cl)cc3)c3ccsc3n2)n1 [Compound T15.15],≥ 80%
8,COc1cccc(-c2nc(-c3cccc(C)n3)nc3sccc23)c1 [Compound T15.11],≥ 80%
9,c1ccc(Cc2cccc(-c3ncc4ccsc4n3)n2)cc1 [Compound T15.16],≥ 80%

# Test system: Monographella nivalis (Microdochium nivale)
# Assay: Fungicidal activity against Monographella nivalis (Microdochium nivale) / liquid culture (foot rot cereals)
# Type: cell-based
# Conditions: liquid culture (PDB), inhibition of growth determined photometrically 4-5 days after application, read-out: disease control
# Method: as §1, with “Monographella nivalis (Microdochium nivale)/Liquid” for “Mycosphaerella arachidis (Cercospora arachidicola)/Liquid”, “(Foot Rot Cereals)” for “(Early Leaf Spot)”
row,SMILES,inhibition of growth at 200 ppm
1,Cc1cccc(-c2nc(-c3cccc(C)n3)nc3sccc23)c1 [Compound T15.12],≥ 80%
2,"COc1nc(-c2cccc(Cc3ccccc3)n2)nc2sccc12 [Compound T3.1.35, 2-(6-benzyl-pyridin-2-yl)-4-methoxy-thieno[2,3-d]pyrimidine]",≥ 80%
3,Cc1sc2nc(-c3cccc(Cc4ccccc4)n3)ncc2c1C [Compound T15.4],≥ 80%
4,Cc1cccc(-c2nc(-c3ccc(Cl)cc3)c3ccsc3n2)n1 [Compound T15.15],≥ 80%
5,COc1cccc(-c2nc(-c3cccc(C)n3)nc3sccc23)c1 [Compound T15.11],≥ 80%
6,c1ccc(Cc2cccc(-c3ncc4ccsc4n3)n2)cc1 [Compound T15.16],≥ 80%
